Laboratory results published in PMC5000588, “A Female-Biased Odorant Receptor from Apolygus lucorum (Meyer-Dür) Tuned to Some Plant Odors” (International Journal of Molecular Sciences, 2016).

How the values were obtained:
[1] = biological target: T1, AlucOR46/Orco (Apolygus lucorum, UniProt A0A1Q1NIJ3); assay: two-electrode voltage clamp, Xenopus oocytes, inward current dose-response; format: cell-based
T1 construct: gene OR39; full-length ORF of AlucOR46 (1185 bp, 394 residues) in pT7Ts, cRNA co-injected with AlucOrco cRNA into Xenopus oocytes; OR/Orco heteromeric channel; with Odorant receptor coreceptor
T1 sequence (A0A1Q1NIJ3 1-394): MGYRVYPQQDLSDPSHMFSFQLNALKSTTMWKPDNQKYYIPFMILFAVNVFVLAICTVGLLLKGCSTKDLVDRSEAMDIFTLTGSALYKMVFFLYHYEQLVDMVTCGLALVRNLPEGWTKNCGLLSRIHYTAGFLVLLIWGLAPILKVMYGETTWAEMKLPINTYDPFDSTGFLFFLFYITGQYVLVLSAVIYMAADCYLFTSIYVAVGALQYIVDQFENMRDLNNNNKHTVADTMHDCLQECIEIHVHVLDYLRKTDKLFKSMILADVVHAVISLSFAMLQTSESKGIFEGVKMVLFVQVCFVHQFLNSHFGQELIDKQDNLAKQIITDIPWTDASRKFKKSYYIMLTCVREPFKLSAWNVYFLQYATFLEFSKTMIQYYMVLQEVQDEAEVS
T1 sequence (V9TQK7 1-471 partner): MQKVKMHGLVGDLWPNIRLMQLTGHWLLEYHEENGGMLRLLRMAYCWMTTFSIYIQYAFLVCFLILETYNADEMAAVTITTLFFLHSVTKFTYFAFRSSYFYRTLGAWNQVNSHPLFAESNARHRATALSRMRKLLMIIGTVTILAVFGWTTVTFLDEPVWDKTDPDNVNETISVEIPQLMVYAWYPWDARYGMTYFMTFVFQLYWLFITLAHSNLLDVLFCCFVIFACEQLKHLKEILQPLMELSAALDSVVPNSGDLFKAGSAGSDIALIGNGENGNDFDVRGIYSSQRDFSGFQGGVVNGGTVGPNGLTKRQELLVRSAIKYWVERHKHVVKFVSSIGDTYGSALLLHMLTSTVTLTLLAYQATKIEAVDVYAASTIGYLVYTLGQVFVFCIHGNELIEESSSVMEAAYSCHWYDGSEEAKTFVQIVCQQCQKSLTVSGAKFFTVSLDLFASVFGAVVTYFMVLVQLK
Excerpt: two-electrode voltage clamp, Xenopus oocytes, inward current dose-response on AlucOR46/Orco

[2] = biological target: T1, AlucOR46/Orco; assay: two-electrode voltage clamp, Xenopus oocytes, inward current at a single concentration; format: cell-based; details: agonist; 10^−4 M odorant; coexpressed with AlucOrco; 1× Ringer's buffer pH 7.6

Row | EC50 [1] | SMILES | inward current response at 10^-4 M [2]
1 | 13.8 µM | CCCCCCCO [1-Heptanol] | 
2 | 74.4 µM | CC1(C)[C@H]2CC=C(CO)[C@@H]1C2 [(1R)-(−)-Myrtenol] | 
3 | 25.3 µM | CC/C=C/CCO [(E)-3-Hexenol] | 

More lines, now with the values behind:

Row | SMILES | EC50 [1] | inward current response at 10^-4 M [2]
4 | CCC/C=C/C=O [(E)-2-Hexenal] | 37.1 µM | 
5 | C=C(C)[C@H]1CC=C(C)CC1 [(R)-(+)-Limonene] |  | Only six compounds: (S)-(−)-Limonene, (R)-(+)-Limonene
6 | C=C(C)[C@@H]1CC=C(C)CC1 [(S)-(−)-Limonene] |  | Only six compounds: (S)-(−)-Limonene, (R)-(+)-Limonene
